According to patent US7612208B2, “Crystalline form of the salt of 4-(3-chloro-4-(cyclopropylaminocarbonyl)aminophenoxy)-7-methoxy-6-quinolinecarboxamide or the solvate of the salt and a process for preparing the same” (Eisai R&D Management Co., Ltd., priority 2003, dated 2009):

Legend:
Type in all cases: physicochemical
[1] = Evaluation of hygroscopicity (storage 1 week; water content, powder X-ray diffraction); conditions: for change in appearance and crystal transition / change of water content / hygroscopicity: 25° C., relative humidity 75% or 93%; for crystal form: powder X-ray diffraction
Method: The hygroscopicity and solid stability of a crystalline form of the mesylate of the carboxamide (Form A) (obtained in Example 5), a crystalline form of the mesylate of the carboxamide (Form C) (obtained in Example 7), a crystalline form of the acetic acid solvate of the mesylate of the carboxamide (Form I) (obtained in Example 10) and a crystalline form of the esylate of the carboxamide (Form β) (obtained in Example 12) were measured under the following conditions.
1. Storage Conditions for the Hygroscopicity Test (Period: 1 Week)
a-1. 25° C., relative humidity 75%
b-1. 25° C., relative humidity 93%
Analysis was carried out according to “X-Ray Powder Diffraction Method” described in Japanese Pharmacopoeia 14th Edition, General Tests (B-614 to 619) under the following measurement conditions. • Apparatus: RINT-2000 (manufacture by Rigaku Denki K. K.) • X-ray: CuKα ray • Monochrometer: curved crystal monochrometer • Goniometer: vertical goniometer • Counter: scintillation counter • Applied voltage: 40 kV • Charging current: 200 mA • Scan speed: 5°/min • Scan axis: 2θ/θ • Scan range; 2θ+5° to 40° • Divergent slit: 0.5° • Scattering slit: 0.5° • Receiving slit: 0.3 mm 5. Measurement of Water Content
Measurement was carried out according to the Water Determination as described in Japanese Pharmacopoeia 14th Edition, General Tests (B-318 to 331) using 6 to 10 mg of each crystal.

[2] = Evaluation of solid stability (storage 2 weeks; total impurity by HPLC, water content, powder X-ray diffraction); conditions: for changes in water content and appearance, crystal transition: all storage conditions
Method: 2. Storage Conditions for the Solid Stability Test (Period: 2 Weeks) a-2. −20° C. (well closed) b-2. 25° C., light irradiation (1000 1×; shading with aluminum foil, well closed) c-2. 25° C., light irradiation (1000 1×; well closed) […]
e-2. 60° C. (well closed except the following case: slightly open in the case of a crystalline form of the acetic acid solvate of the mesylate (Form I))
3. Method for Measuring the Impurity Amount by HPLC
After storage, the sample solution was prepared by adding a mixed solvent of water and methanol (3:1) to each crystal at 0.1 mg/mL as final concentration.
Tests were conducted by the HPLC method for these sample solutions under the measurement conditions described below, and the eluted peak areas were measured to determine the total impurity amount by the relative area method (impurities of 0.05% or more were counted).
(Formula for Calculating Total Impurity Amount)
• Individual impurity amount (%)=(the peak area for the individual impurity)×100/{(the peak area for carboxamide)+(sum of the peak areas for impurities)} • Total impurity amount (%)=sum of individual impurity amounts (HPLC Measurement Conditions) • Column: Mightysil RP-18 GP (Kanto Kagaku; inner diameter 4.6 mm, column length 150 mm, particle size 3 μm) • Column temperature: constant temperature in vicinity of 40° C. • Flow rate: 1.0 mL/min • Mobile phase:
Solution B: CH3CN:H2O:HClO4=900:100:1 (v/v/v) • Gradient conditions […]
• Injection amount: 10 μL • Detection: ultraviolet absorbance photometer (wavelength: 252 nm) • Temperature of auto sampler: constant temperature in vicinity of 10° C. 4. Powder X-ray Diffraction […]
Measurement of Water Content

[3] = Test for measuring dissolution rate (rotating disk method); conditions: 2nd fluid pH 6.8, 37° C., 50 rpm
Method: The dissolution rates of the following crystals were measured under the conditions described below by the rotating disk method (see, J. H. Woods et al., J. Pharm. Soc., 54, 1068 (1955)): a crystalline form of the free carboxamide (obtained in Preparation Example 1), a crystalline form of the hydrochloride of the carboxamide (obtained in Example 1), a crystalline form of the hydrobromide of the carboxamide (obtained in Example 2), a crystalline form of the methanesulfonate (hereunder, referred to as “mesylate”) of the carboxamide (Form A) (obtained in Example 5), a crystalline form of the mesylate of the carboxamide (Form C) (obtained in Example 7) and a crystalline form of the ethanesulfonate (hereunder, referred to as “esylate”) (Form β) (obtained in Example 12). The dissolution rates were calculated based on a range in which linearity was maintained in the relation between concentration and time at the initial stage of dissolution.
(Rotating Disk Method Conditions)
• Solvent: “2nd fluid” (pH 6.8, 500 mL) as described in Japanese Pharmacopoeia 14th Edition, General Tests (disintegration test) • Temperature: 37° C. • Disk rotation speed: 50 rpm • Area of powder contacting with solvent on disk: 1 cm^2 • Sampling amount: approx. 1 mL (HPLC Conditions) • Column: Cadenza CD-18 (Imtakt Corporation; inner diameter 4.6 mm, Column length 100 mm, particle size 3 μm) • Column temperature: 40° C. • Flow rate: 1.0 mL/min • Mobile phase:
Concentration of solution B: 20% • Injection amount: 100 μL • Detection: ultraviolet absorbance photometer (wavelength: 252 nm) • Temperature of auto sampler: 25° C. [Results]

[4] = a-1: 25° C., relative humidity 75%, 1 week
[5] = b-1: 25° C., relative humidity 93%, 1 week
[6] = a-2: −20° C. (well closed), 2 weeks
[7] = b-2: 25° C., light irradiation 1000 lx, shading with aluminum foil, well closed, 2 weeks
[8] = c-2: 25° C., light irradiation 1000 lx, well closed, 2 weeks
[9] = d-2: 40° C., relative humidity 75%, 2 weeks
[10] = e-2: 60° C., 2 weeks (well closed; slightly open for Form I)
[11] = solid stability test, initial, HPLC relative area

change of water content ([1]; 1 week) | water content [1, 4] [%] | water content [1, 5] [%] | water content ([1]; hygroscopicity test, initial) [%] | total impurity [2, 6] [%] | water content [2, 6] [%] | total impurity [2, 7] [%] | water content [2, 7] [%] | total impurity [2, 8] [%] | water content [2, 8] [%] | total impurity [2, 9] [%] | water content [2, 9] [%] | total impurity [2, 10] [%] | water content [2, 10] [%] | water content ([2]; solid stability test, initial) [%] | total impurity [2, 11] [%] | hygroscopicity ([1]; 1 week) | dissolution rate [3] [μg/min/cm^2] | Structure (SMILES) | change in appearance and crystal transition ([1]; 1 week) | changes in water content and appearance, crystal transition ([2]; solid stability test, 2 weeks) | also measured
a decrease in water content was observed | 0.6 | 0.8 | 2.9 | 0.67 | 3.1 | 0.66 | 3.1 | 0.87 | 2.9 | 0.61 | 0.9 | 0.84 | 0.3 | 2.9 | 0.62 | – | – | CC(=O)O.COc1cc2nccc(Oc3ccc(NC(=O)NC4CC4)c(Cl)c3)c2cc1C(N)=O.CS(=O)(=O)O [Acetic Acid Solvate of the Methanesulfonate of 4-(3-chloro-4-(cyclopropylaminocarbonyl)aminophenoxy)-7-methoxy-6-quinolinecarboxamide] | transition to a crystalline form of the mesylate (Form C) | – | crystal transition ([2]; 40° C. and relative humidity of 75%, 2 weeks): transition to a crystalline form of the mesylate (Form C); crystal transition ([2]; 60° C. in a slightly opened container, 2 weeks): transition to a crystalline form of the mesylate (Form B); crystal transition, changes in total impurity amount, water content and appearance ([2]; stored in a well closed container, 2 weeks): neither crystal transition nor remarkable changes in total impurity amount, water content and appearance were observed
did not change remarkably | 1.7 | 1.4 | 1.7 | 0.48 | 2.0 | 0.46 | 2.5 | 0.49 | 2.1 | 0.48 | 2.0 | 0.51 | 2.2 | 1.7 | 0.55 | not observed | 18.5 | CCS(=O)(=O)O.COc1cc2nccc(Oc3ccc(NC(=O)NC4CC4)c(Cl)c3)c2cc1C(N)=O [esylate (Form β), Ethanesulfonate of 4-(3-chloro-4-(cyclopropylaminocarbonyl)aminophenoxy)-7-methoxy-6-quinolinecarboxamide] | Neither remarkable change in appearance nor crystal transition was observed | neither remarkable changes in water content and appearance nor crystal transition was observed | crystal form [1, 4]: β; crystal form [1, 5]: β; crystal form ([1]; hygroscopicity test, initial): β; crystal form [2, 6]: β; crystal form [2, 7]: β; crystal form [2, 8]: β; crystal form [2, 9]: β; crystal form [2, 10]: β; crystal form ([2]; solid stability test, initial, powder X-ray diffraction): β
– | – | – | – | – | – | – | – | – | – | – | – | – | – | – | – | – | 4.7 | COc1cc2nccc(Oc3ccc(NC(=O)NC4CC4)c(Cl)c3)c2cc1C(N)=O.Cl [hydrochloride, Hydrochloride of 4-(3-chloro-4-(cyclopropylaminocarbonyl)aminophenoxy)-7-methoxy-6-quinolinecarboxamide] | – | – | –
did not change remarkably | 0.6 | 0.7 | 0.7 | 2.10 | 0.7 | 2.09 | 0.8 | 2.22 | 0.7 | 2.06 | 0.6 | 2.18 | 0.5 | 0.7 | 2.11 | not observed | 15.5 | COc1cc2nccc(Oc3ccc(NC(=O)NC4CC4)c(Cl)c3)c2cc1C(N)=O.CS(=O)(=O)O [mesylate (Form C), Methanesulfonate of 4-(3-chloro-4-(cyclopropylaminocarbonyl)aminophenoxy)-7-methoxy-6-quinolinecarboxamide] | Neither remarkable change in appearance nor crystal transition was observed | neither remarkable changes in water content and appearance nor crystal transition was observed | –
